Data reported in PMC11219871, “Epigenetic-based differentiation therapy for Acute Myeloid Leukemia” (Nature Communications, 2024).
“And” between values parts separate entries of the source, which are not always exact repeats. Equal entries are not always repeated.

What was measured:
[1] = tested on: TF-1; assay: Differentiation assay, CD11b / annexin-V flow cytometry; type: cell-based; conditions: TF-1 cell line; replicates 1-3 (Figure 2A);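 further: daily treatment at a GI50-based fraction of each compound's GI50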
Method: (§1) Next, the cells were washed twice with phosphate-buffered saline (PBS) and resuspended in 1X Binding Buffer at a concentration of 1 × 10^6 cells/mL. An 8-µL aliquot of APC-CD11b (BD Pharmingen, Franklin Lakes, NJ, USA) and 1 µL of FITC annexin-V (AV) (BD Pharmingen, Franklin Lakes, NJ, USA) antibodies were added and incubated for 15 min at room temperature in the dark. Finally, after the addition of 400 µL of 1X Binding Buffer to each tube, samples were collected on a BD FACSCanto flow cytometer (Becton Dickinson, San Jose, CA, USA) and analyzed using FlowJo software.

[2] = tested on: OCI-AML3; assay: as above; type: cell-based; conditions: OCI-AML-3 cell line; replicates 1-3 (Figure 2A)
Method: as §1

[3] = tested on: MONO-MAC-6; assay: as above; type: cell-based; conditions: MONOMAC-6 cell line; replicates 1-3 (Figure 2A)
Method: as §1

[4] = tested on: HL-60; assay: Differentiation-apoptosis assay, CD11b / annexin-V / Sytox Green / myeloid markers flow cytometry; type: cell-based, human; design: Cell viability (%): concentration or dose not given beside the values; CD11b levels: unit not given here; conditions: for Annexin V (%) Replicate 1 / Annexin V (%) Replicate 2 / Annexin V (%) Replicate 3 / CD11b (%) Replicate 1 / CD11b (%) Replicate 2 / CD11b (%) Replicate 3: HL-60, daily 25% GI50, 48 h; for percentage of CD11b: HL-60, 270 nM CM-444 or 300 nM CM-1758 daily for 4 days, before injection; for differentiation level (CD11b): HL-60, after 6–8 days of treatment; for CD11b levels: HL-60 treated daily for 48 h, replicates (Fig 6D)
Method: Next, the cells were washed twice with phosphate-buffered saline (PBS) and resuspended in 1X Binding Buffer at a concentration of 1 × 10^6 cells/mL. […] Finally, after the addition of 400 µL of 1X Binding Buffer to each tube, samples were collected on a BD FACSCanto flow cytometer (Becton Dickinson, San Jose, CA, USA) and analyzed using FlowJo software.
Then, 1 million cells (volume of 250 µL) were added and incubated for 30 min at room temperature in darkness. After 10 min incubation at room temperature with 2 mL of FACSLysing 1X, cells were centrifuged at 540 g for 5 min and washed twice with FACSBuffer. Finally, after centrifugation at 540 g for 5 min cells were resuspended in FACSBuffer.

[5] = biological target: T1, HDAC6 (Homo sapiens, UniProt Q9UBN7); assay: HDAC enzymatic assay, fluorescence-labeled substrate; type: biochemical; conditions: for inhibition at 10 µM: source data of Fig. 1B; for IC50: read-out: IC50
T1 sequence (Q9UBN7 1-1215): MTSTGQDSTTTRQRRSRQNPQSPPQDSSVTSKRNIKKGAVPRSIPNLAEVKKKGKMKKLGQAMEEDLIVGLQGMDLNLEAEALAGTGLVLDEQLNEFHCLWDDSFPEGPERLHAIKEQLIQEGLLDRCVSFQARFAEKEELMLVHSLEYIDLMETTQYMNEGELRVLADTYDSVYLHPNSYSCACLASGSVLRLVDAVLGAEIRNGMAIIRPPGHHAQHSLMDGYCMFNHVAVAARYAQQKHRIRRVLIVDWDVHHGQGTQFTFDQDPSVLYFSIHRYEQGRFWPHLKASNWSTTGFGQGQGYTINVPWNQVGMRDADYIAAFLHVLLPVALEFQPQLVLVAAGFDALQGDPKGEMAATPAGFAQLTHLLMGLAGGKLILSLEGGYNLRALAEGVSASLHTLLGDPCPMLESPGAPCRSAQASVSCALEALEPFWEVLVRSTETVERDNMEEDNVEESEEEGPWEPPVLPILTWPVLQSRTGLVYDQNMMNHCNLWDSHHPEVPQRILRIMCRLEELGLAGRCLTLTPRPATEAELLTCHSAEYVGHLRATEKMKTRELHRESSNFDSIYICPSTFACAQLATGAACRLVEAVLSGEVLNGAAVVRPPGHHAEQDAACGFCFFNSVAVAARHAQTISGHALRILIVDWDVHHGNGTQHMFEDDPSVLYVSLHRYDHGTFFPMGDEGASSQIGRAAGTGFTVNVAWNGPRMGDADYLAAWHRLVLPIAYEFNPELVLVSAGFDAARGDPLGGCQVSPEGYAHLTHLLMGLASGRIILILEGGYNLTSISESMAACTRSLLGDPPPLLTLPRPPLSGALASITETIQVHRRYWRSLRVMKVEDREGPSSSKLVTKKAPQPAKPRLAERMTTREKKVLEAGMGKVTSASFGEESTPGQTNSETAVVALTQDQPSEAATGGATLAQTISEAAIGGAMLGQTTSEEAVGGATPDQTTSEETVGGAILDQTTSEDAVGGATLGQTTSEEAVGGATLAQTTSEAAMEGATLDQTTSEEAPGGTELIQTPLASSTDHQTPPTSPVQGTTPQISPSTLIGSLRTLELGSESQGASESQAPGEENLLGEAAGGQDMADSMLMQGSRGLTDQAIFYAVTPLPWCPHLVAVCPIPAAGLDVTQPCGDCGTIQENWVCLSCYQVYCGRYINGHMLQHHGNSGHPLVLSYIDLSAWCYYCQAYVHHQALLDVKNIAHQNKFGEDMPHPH

[6] = HL-60 cell line, replicates 1-3 (Figure 2A)
[7] = HL-60, 48 h treatment, replicates 1-3 (Suppl. Fig. 5A)
[8] = HL-60, daily treatment, time 0 days, replicates 1-3 (Figure 2B)
[9] = HL-60, daily treatment, time 2 days, replicates 1-3 (Figure 2B)
[10] = HL-60, daily treatment, time 4 days, replicates 1-3 (Figure 2B)
[11] = HL-60, daily treatment, time 6 days, replicates 1-3 (Figure 2B)
[12] = HL-60, daily treatment, time 8 days, replicates 1-3 (Figure 2B)

## CC1=C(/C=C/C(C)=C/C=C/C(C)=C/C(=O)O)C(C)(C)CCC1 [ATRA, all-trans retinoic acid, reference compound]
[1]
  CD11b (%): 36.7% and 30.4% and 33.4%
[2]
  CD11b (%): 19.3% and 12.4% and 11.8%
[3]
  CD11b (%): 10.8% and 15.4% and 11.3%
[4]
  Annexin V (%) Replicate 1: 0.34%
  Annexin V (%) Replicate 2: 0.98%
  Annexin V (%) Replicate 3: 0.97%
  CD11b (%) Replicate 1: 10.12%
  CD11b (%) Replicate 2: 15.48%
  CD11b (%) Replicate 3: 12.56%
[4]; [6]
  CD11b (%): 10.3% and 15.8% and 12.06%

## COc1cc2nc(-c3ccc(C)o3)cc(NCC3CCN(c4ncc(C(=O)NO)cn4)CC3)c2cc1OC [CM-444, 2-[4-[[[6,7-dimethoxy-2-(5-methyl-2-furyl)-4-quinolyl]amino]methyl]-1-piperidyl]pyrimidine-5-carbohydroxamic acid]
[5]
  inhibition at 10 µM: 90%
  IC50: 0.531 µM
[1]
  CD11b (%): 85.3% and 79.1% and 71.7%
[2]
  CD11b (%): 36.4% and 23.4% and 30.8%
[3]
  CD11b (%): 69.4% and 75.8% and 60.6%
[4]
  percentage of CD11b: > 90%
  differentiation level (CD11b): ~90%
  Annexin V (%) Replicate 1: 0.75%
  Annexin V (%) Replicate 2: 0.49%
  Annexin V (%) Replicate 3: 0.44%
  CD11b (%) Replicate 1: 86.24%
  CD11b (%) Replicate 2: 75.15%
  CD11b (%) Replicate 3: 76.65%
  CD11b levels: 76.5 and 85.9 and 92.1
[4]; HL-60, 48 h
  CD11b (%): 74.3%
  CD13 (%): 100%
  CD14 (%): 21.5%
  HLA-DR (%): 9.16%
[4]; [7]
  CD11b (%): 71.2% and 75.4% and 68.7%
  Cell viability (%): 78.5% and 72.1% and 82.5%
[4]; [8]
  Annexin-V (%): 0% and 4.96% and 3.21%
  CD11b (%): 13.33% and 12.5% and 10.8%
[4]; [9]
  Annexin-V (%): 6.83% and 2.49% and 5.41%
  CD11b (%): 79.45% and 76.2% and 73.9%
[4]; [10]
  Annexin-V (%): 0% and 2.98% and 3.14%
  CD11b (%): 95.2% and 93.5% and 90.4%
[4]; [11]
  Annexin-V (%): 9.4% and 2.53% and 5.87%
  CD11b (%): 93% and 97.3% and 95.8%
[4]; [12]
  Annexin-V (%): 0% and 4.09% and 6.81%
  CD11b (%): 98.61% and 98.5% and 97.1%
[4]; [6]
  CD11b (%): 88.3% and 85.7% and 88.0%

## COc1cc2nc(-c3cc(C)oc3C)cc(NCC3CCN(c4ncc(C(=O)NO)cn4)CC3)c2cc1OC [CM-1758, 2-[4-[[[2-(2,5-dimethyl-3-furyl)-6,7-dimethoxy-4-quinolyl]amino]methyl] -1-piperidyl]pyrimidine-5-carbohydroxamic acid]
[5]
  inhibition at 10 µM: 90%
  IC50: 0.257 µM
[1]
  CD11b (%): 72.3% (2×) and 76.2%
[2]
  CD11b (%): 51.4% and 49.5% and 45.2%
[3]
  CD11b (%): 61.3% and 69.1% and 60.1%
[4]
  percentage of CD11b: > 90%
  differentiation level (CD11b): ~90%
  Annexin V (%) Replicate 1: 0.26%
  Annexin V (%) Replicate 2: 0.17%
  Annexin V (%) Replicate 3: 0.14%
  CD11b (%) Replicate 1: 55.36%
  CD11b (%) Replicate 2: 68.41%
  CD11b (%) Replicate 3: 67.15%
  CD11b levels: 61.2 and 70.4 and 75.9
[4]; HL-60, 48 h
  CD11b (%): 71.2%
  CD13 (%): 100%
  CD14 (%): 18.9%
  HLA-DR (%): 12.2%
[4]; [7]
  CD11b (%): 65.4% and 71.1% and 68.4%
  Cell viability (%): 82.8% and 73.6% and 69.5%
[4]; [8]
  Annexin-V (%): 0% and 4.96% and 3.21%
  CD11b (%): 13.33% and 12.5% and 10.8%
[4]; [9]
  Annexin-V (%): 5.66% and 3.51% and 4.98%
  CD11b (%): 74.44% and 64.2% and 68.7%
[4]; [10]
  Annexin-V (%): 0% and 4.07% and 5.87%
  CD11b (%): 86.57% and 79.2% and 77.3%
[4]; [11]
  Annexin-V (%): 5.76% and 2.68% and 3.98%
  CD11b (%): 94.42% and 89.2% and 90.5%
[4]; [12]
  Annexin-V (%): 0% and 5.21% and 6.98%
  CD11b (%): 96% and 92.9% and 94.7%
[4]; [6]
  CD11b (%): 81.73% and 89.6% and 92.1%

## Cc1[nH]c2ccccc2c1CCNCc1ccc(/C=C/C(=O)NO)cc1 [Panobinostat, reference compound]
[4]; [7]
  CD11b (%): 10.8% and 18.5%
  Cell viability (%): 45.2% and 38.6% and 44.9%
[4]
  Annexin V (%) Replicate 1: 20.30%
  Annexin V (%) Replicate 2: 24.90%
  Annexin V (%) Replicate 3: 22.00%
  CD11b (%) Replicate 1: 12.07%
  CD11b (%) Replicate 2: 18.60%
  CD11b (%) Replicate 3: 12.38%

## O=C(CCCCCCC(=O)Nc1ccccc1)NO [Vorinostat, reference compound]
[4]; [7]
  CD11b (%): 30.8% and 39.8% and 27.7%
  Cell viability (%): 74.2% and 83.6% and 75%
